The results in this text go back to PubChem BioAssay (NCI).

“And” between values parts separate entries of the source, which are not always exact repeats. Equal entries are not always repeated.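 Interpolation was linear, between the two tested concentrations surrounding the appropriate level; five concentrations were tested over 48 hours in 96-well plates. The concentration for 50% growth inhibition is given as GI50. TGI is the concentration that stops growth completely.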

Among the test systems are RPMI-8226 leukemia; M19-MEL melanoma; DMS 114 small cell lung; DMS 273 small cell lung; KM20L2 colon; SNB-78 CNS; HOP-18 NSCLC; LXFL 529 NSCLC; DLD-1 colon; XF 498 CNS; P388 leukemia; P388/ADR leukemia; SN12K1 renal; RXF-631 renal.
Experiment in all cases: NCI tumour cell line growth inhibition, 48 h

As for `C/C(=N/NC(=S)Nc1cccc(C)c1)c1ccccn1`, in the experiment on RPMI-8226 leukemia, the TGI turned out to be 13.7 µM.
In the experiment with RPMI-8226 leukemia, `O=C1OC[C@@H]2Cc3c([nH]c4ccccc34)[C@@H](c3ccc(O)cc3)N12` returned a TGI of over 80.9 µM.
Regarding `c1ccc(N=c2snc(-c3ccccc3)s2)cc1`, the TGI in the experiment with M19-MEL melanoma, in the experiment on DMS 114 small cell lung, in the experiment with DMS 273 small cell lung, with RPMI-8226 leukemia, in the experiment on KM20L2 colon and in the experiment on SNB-78 CNS was over 100 µM throughout. For the same compound, the TGI in the experiment with HOP-18 NSCLC, with LXFL 529 NSCLC and with DLD-1 colon was over 100 µM throughout.
The compound `CCOP(=O)(OCC)/C(F)=C/c1ccccc1` returned a TGI in the experiment with RPMI-8226 leukemia of over 100 µM.
On the same count and under the same terms, as for `O=C1CC(c2ccc([N+](=O)[O-])cc2)C2(C(=O)NC(=S)NC2=O)C(c2ccc([N+](=O)[O-])cc2)C1` (stereo not drawn), the figure is over 100 µM; as for `CC(=O)CC(=O)c1cc2c(=O)oc(C)cc2oc1=O`, over 37.5 µM; as for `NCCCC(N)C(=O)O` (stereo not drawn), over 100 µM.
The same measure, in the same setting: then `CSc1c(C(=O)Nc2ccc(C)cc2)c(N)[nH]c(=O)c1C#N`, with over 100 µM; and `Cc1oc2nc(N(C)C)n3nnnc3c2c1C`, with over 100 µM; and `CCOC(=O)c1cnc2[nH]ccn2c1=O`, with over 10 µM.
Compound `O=C1C(Br)=Cc2c(Cl)sc(Cl)c21` registered a TGI in the experiment with RPMI-8226 leukemia of 2.98 µM.
On the same count and under the same terms, as for `C(=Nc1ccc(-c2nc3ccccc3s2)cc1)c1ccco1`, the figure is over 100 µM; as for `COc1ccc2c(c1)C(=O)c1ccccc1C2`, over 100 µM; as for `Nc1ncnc2c1ncn2C(=O)NC12CC3CC(CC(C3)C1)C2`, over 100 µM.
Turning to `O=C1C(Cl)N(c2ccccc2)C1c1c[nH]c2ccccc12` (stereo not drawn), the TGI with XF 498 CNS, with M19-MEL melanoma, with DMS 114 small cell lung, with RPMI-8226 leukemia, with KM20L2 colon and with LXFL 529 NSCLC was over 100 µM each time.
`C[C@@H]1C[C@H](O)[C@]2(O)O[C@@H]3C[C@@]4(C=O)[C@@H](CC=C5[C@@H]4CC[C@]4(C)[C@@H](C6=CC(=O)OC6)CC[C@]54O)C[C@H]3O[C@@H]2O1` registered a TGI in the experiment on RPMI-8226 leukemia of 0.349 µM.
For the compound `O=C1N[C@@H]2c3c(csc3Br)C(=O)[C@@H]2O1`, the TGI in the experiment with RPMI-8226 leukemia amounted to 85.1 µM.
In the experiment on RPMI-8226 leukemia, `CC(C)(CO)N1C(=O)c2ccccc2C1(O)c1ccc(Cl)cc1` (stereo not drawn) showed a TGI of over 100 µM.
`O=C(O)c1ccc(NS(=O)(=O)Cc2ccccc2)cc1`: in the experiment with RPMI-8226 leukemia, the TGI was over 100 µM.
In turn, `O=C(O[C@H](/C=C/c1ccccc1)P1(=O)N(Cc2ccccc2)[C@@H]2CCCC[C@H]2N1Cc1ccccc1)c1ccccc1` registered a TGI in the experiment with RPMI-8226 leukemia of 6.39 µM.
`COc1ccc(NC2Oc3cc4c(cc3C(c3cc(OC)c(OC)c(OC)c3)C2C)OCO4)cc1` (stereo not drawn) had a TGI in the experiment on RPMI-8226 leukemia of over 83 µM.
Turning to `Cc1cccc(C[C@@]2(SCc3ccccc3)C(C)(C)[C@@H]3CC[C@@]2(C)C3)n1`, the TGI in the experiment on RPMI-8226 leukemia amounted to 30.5 µM.
In turn, `CN1CN(c2ccccc2)C2(CCN(CCCC3(c4cccs4)OCCO3)CC2)C1=O` showed a TGI with RPMI-8226 leukemia of over 100 µM.
For `Cc1cccc(N(CCC#N)S(=O)(=O)c2ccccc2)c1`, the TGI in the experiment on RPMI-8226 leukemia was over 100 µM.
In the case of `CN(C)c1ccc(/C(Br)=C2\OC(=O)c3ccccc32)cc1`, the TGI in the experiment on RPMI-8226 leukemia was 71.7 µM.
The same measure, in the same setting: as for `O=C1C(C=NCCc2c[nH]c3ccccc23)C(C(F)(F)F)=NN1c1nc2ccccc2s1` (stereo not drawn), the figure is 62.5 µM.
On the same count and under the same terms, then `O=C(O)Cc1ccc2nc(COC(=O)c3ccccc3)sc2c1`, with over 100 µM.
Take `COc1cc([C@@H]2c3cc4c(cc3C[C@H]3COC(=O)[C@@H]32)OCO4)cc(OC)c1OC`: the TGI in the experiment on XF 498 CNS was 1.88 µM; in the experiment on M19-MEL melanoma, over 50 µM; with DMS 114 small cell lung it was 0.0167 µM; in the experiment with P388 leukemia, over 15.8 µM; in the experiment with DMS 273 small cell lung, over 4.13 µM; in the experiment on RPMI-8226 leukemia it was 6.57 µM. Also, the TGI was over 50 µM in the experiment with SNB-78 CNS; 0.502 µM in the experiment with P388/ADR leukemia; over 50 µM in the experiment with HOP-18 NSCLC; over 50 µM in the experiment with DLD-1 colon; over 3.86 µM in the experiment on SN12K1 renal. Also, the GI50 in the experiment with RPMI-8226 leukemia is 0.00382 µM and 0.01 µM.
In the case of `CC1=CC=CC(C)(C)CC1(O[Si](C)(C)C)C(F)(F)F` (stereo not drawn), the TGI in the experiment with RPMI-8226 leukemia is over 100 µM.
Compound `C[C@]12CC/C(=N\O)C=C1CC[C@@H]1[C@@H]2CC[C@]2(C)C(=N/O)/C(=C/c3cccnc3)C[C@@H]12` gave a TGI with RPMI-8226 leukemia of 8.95 µM.
`CC(C)c1c(P(=O)(c2ccccc2)c2ccccc2)n(C)c2ccccc12` registered a TGI with RPMI-8226 leukemia of over 100 µM.
As to `OCc1ccccc1C1CSCSC1`, the TGI in the experiment with XF 498 CNS, in the experiment on M19-MEL melanoma, with DMS 114 small cell lung, with DMS 273 small cell lung, in the experiment on SNB-78 CNS and in the experiment on LXFL 529 NSCLC was over 100 µM throughout. Besides, the TGI in the experiment on DLD-1 colon was over 100 µM.
In the experiment with RPMI-8226 leukemia, `CC(C)/C(Cl)=N\OC(=O)NNc1ccccc1` yielded a TGI of 1.34 µM.
The same measure, in the same setting: then `CCOC(=O)C(=O)N1C(C)=C(C(=O)OCC)CC(C(=O)OCC)=C1C`, with over 100 µM; and `Cc1nc(Cl)c(CBr)c(Cl)n1`, with 4.47 µM; and `CCOC(=O)c1c(SCCN2CCCC2)n(-c2ccccc2)c(=S)n(-c2ccccc2)c1=O`, with 5.87 µM.
Still for that read-out and setting: as for `CC(C)CCNC(=O)c1ccc(CNC(=O)/C=C/c2ccc(OCc3ccccc3)cc2)cc1`, the figure is over 100 µM.
Same read-out and setting: as for `O=C(/C=C/c1cccs1)c1ccc(Cl)cc1`, the figure is 57.8 µM; as for `CC1=CC(=O)N(n2c(C)n[nH]c2=O)C1=O`, over 100 µM; as for `COc1cccc(C2c3cc4c(cc3OC(N3CCCC3)C2C)OCO4)c1OC` (stereo not drawn), 13.2 µM.
Compound `N#CC(C#N)=C1CCCS(=O)(=O)c2ccccc21` registered a TGI in the experiment on RPMI-8226 leukemia of over 100 µM.
Take `CC(=O)Nc1ccc(Cl)c(Cl)c1`: the TGI in the experiment on M19-MEL melanoma, in the experiment with DMS 114 small cell lung, with DMS 273 small cell lung, in the experiment on RPMI-8226 leukemia, in the experiment with KM20L2 colon and in the experiment with SNB-78 CNS was over 100 µM in each case. Also, the TGI with LXFL 529 NSCLC and with DLD-1 colon was over 100 µM each time.
As to `O=C1/C(=C/c2ccc(Br)s2)NC(=S)N1CN1CCOCC1`, in the experiment on RPMI-8226 leukemia, the TGI worked out at 43 µM.
In turn, `O=C(O)CNC(=O)c1ccc([As](=O)(O)O)cc1` displayed a TGI with RPMI-8226 leukemia of over 100 µM.
With `Cc1cc2cccc(Cl)c2nc1C(=O)c1ccccc1`, the TGI with XF 498 CNS, in the experiment with M19-MEL melanoma, in the experiment on DMS 114 small cell lung, in the experiment on DMS 273 small cell lung, with RPMI-8226 leukemia and with KM20L2 colon was over 100 µM throughout. The TGI with SNB-78 CNS, in the experiment on HOP-18 NSCLC, with LXFL 529 NSCLC, in the experiment on DLD-1 colon and in the experiment on RXF-631 renal was over 100 µM each time.
In the case of `Cc1nc2ccc([N+](=O)[O-])cc2c(=O)n1C(=S)Nc1cccc(Cl)c1`, in the experiment on RPMI-8226 leukemia, the TGI was determined as 19.6 µM.
For the compound `N#CSCc1cccc(Nc2cc(=O)[nH]c(=O)[nH]2)c1`, the TGI in the experiment on RPMI-8226 leukemia is over 100 µM.
The same measure, in the same setting: then `COC(=O)CCCC(=O)C(=Nc1c(Cl)cccc1Cl)NNc1ccc(Cl)cc1`, with over 100 µM.
Regarding `C=CCCCC12CCCc3cccc(c31)NC2=O` (stereo not drawn), the TGI in the experiment with XF 498 CNS was 41.7 µM; in the experiment on DMS 114 small cell lung, 33 µM; in the experiment with RPMI-8226 leukemia it was 47.3 µM; in the experiment on KM20L2 colon, 47 µM; in the experiment on DLD-1 colon, 42.4 µM; in the experiment with RXF-631 renal, 55.6 µM.
The compound `CCOC(=O)C1C(=O)CC(O)(c2ccccc2)C(C(=O)OCC)C1c1ccc(OC)cc1` (stereo not drawn) returned a TGI in the experiment with RPMI-8226 leukemia of 40.6 µM.
In turn, `COc1cccc(-c2nc(-c3cnccn3)n(Cc3ccccc3)n2)c1` came in with a TGI in the experiment on RPMI-8226 leukemia of over 100 µM.
Same read-out and setting: then `CCOc1ccc(N=C/C=C(\Cl)c2ccc3ccccc3c2)cc1`, with 24.7 µM; and `COc1cc2c(cc1OC)C(=O)/C(=C/c1cc(C)c(O)c(C)c1)C2`, with over 100 µM.
Turning to `CCC[C@H](C)[C@H]1NC(=O)[C@@H](NC(=O)[C@@H](CC(C)C)N(C)C(=O)C2CCCN2C(=O)[C@H](C)O)[C@@H](C)OC(=O)[C@H](CC(C)C)N(C)C(=O)[C@@H]2CCCN2C(=O)[C@H](CC(C)C)NC(=O)[C@@H](C)C(=O)[C@H](C(C)C)OC(=O)C[C@@H]1O` (stereo partly drawn), the TGI with RPMI-8226 leukemia was determined as 0.0768 µM.
In the experiment with RPMI-8226 leukemia, `Cc1ccc(C(=O)Nc2ccc(CP(=O)(O)O)cc2)cc1NC(=O)c1cccc(NC(=O)Nc2cccc(C(=O)Nc3cc(C(=O)Nc4ccc(CP(=O)(O)O)cc4)ccc3C)c2)c1` showed a TGI of over 100 µM.
The same measure, in the same setting: as for `CC1CC(C#N)=C2NCCCCN2C1=O` (stereo not drawn), the figure is over 100 µM.
Same read-out and setting: then `CCN(CC)CCCn1c(=O)c2cccnc2n2c3c(=O)n(C)c(=O)n(C)c3nc12`, with over 100 µM.
As for `COc1ccc(CNc2nc3ccc(C(F)(F)F)cc3nc2-c2ccccc2)cc1OC`, the TGI in the experiment with XF 498 CNS, in the experiment on M19-MEL melanoma, in the experiment with DMS 273 small cell lung, in the experiment with RPMI-8226 leukemia, with KM20L2 colon and in the experiment on SNB-78 CNS was over 100 µM each time. The TGI in the experiment on HOP-18 NSCLC, in the experiment with LXFL 529 NSCLC and with RXF-631 renal was over 100 µM in each case.
For `N#Cc1c2c(c(Nc3ccc(F)cc3)n3c1nc1ccccc13)CCC2`, the TGI with RPMI-8226 leukemia was over 21.3 µM.
With `CN1C(=O)CN(NC(=O)C2=C(O)c3ccc(Br)cc3S(=O)(=O)N2)C1=S`, the TGI with RPMI-8226 leukemia was over 100 µM.
Still for that read-out and setting: then `O=C1NC(=S)NC(=O)C1C(c1ccccc1[N+](=O)[O-])C1C(=O)NC(=S)NC1=O`, with over 100 µM.
With `COC1C=CC23c4cc5c(cc4C(O)OC2CN(C)C3C1)OCO5` (stereo not drawn), the TGI with M19-MEL melanoma is 8.82 µM; with DMS 114 small cell lung, 6.05 µM; with DMS 273 small cell lung, 6.87 µM; with RPMI-8226 leukemia, 8.34 µM; with KM20L2 colon, 9.1 µM; in the experiment on LXFL 529 NSCLC, 9.55 µM.
As for `O=c1nc2c(c(-c3cccc(Cl)c3)[nH]1)COC/C2=C\c1cccc(Cl)c1`, in the experiment on RPMI-8226 leukemia, the TGI is over 100 µM.
As for `COC(=O)C1CC(C=[N+](C)C)=C(SC)N1` (stereo not drawn), the TGI in the experiment on RPMI-8226 leukemia was over 100 µM.
Still for that read-out and setting: then `CCOC(=O)c1c(N)n(-c2ccccc2)c(=S)n(-c2ccccc2)c1=O`, with over 100 µM; and `CC(=O)OCC1OC(n2c(=S)[nH]c(-c3ccccc3)c(C#N)c2=O)C(OC(C)=O)C(OC(C)=O)C1OC(C)=O` (stereo not drawn), with over 100 µM; and `CN(O)C(=O)Cc1ccc(OCc2cccc(Cl)c2)cc1`, with over 100 µM.
The same measure, in the same setting: then `O=c1c2cc(I)ccc2[nH]c(=S)n1Cc1ccccc1`, with over 100 µM.
